First: CCCn1c(=O)c2[nH]c(-c3ccc4c(c3)OCCO4)nc2n(CCC)c1=O
Second: O=C1N(Cc2ccc(Br)cn2)c2ccccc2C12COc1cc3c(cc12)OCCO3 (stereo unspecified)
The melting point of the first is higher: 280 to 282 °C for the first, 201 to 202 °C for the second.

Compared with `CC(C)NC(=O)NC1CCC(=O)c2ccccc21` (stereo unspecified), `CC(=O)OC1OCC[C@@H]1NC(=O)[C@H](CC(C)C)NC(=O)OCc1ccccc1` (stereo partly specified) is lower in melting point: 185 to 188 °C for the first, 158 to 159 °C for the second.

Compared with `CCCCOc1nc(N)nc2c1ncn2C1C=CC(CO)C1` (stereo unspecified), `CCCc1nn(C)c2c(=O)[nH]c(Cc3ccc(S(=O)(=O)N[C@@H](CO)C(N)=O)cc3)nc12` is higher in melting point: 122 to 123 °C for the first, 226 to 229 °C for the second.

First: CC(C)(C)CCCOC1CCC2C3CC=C4CC(O[Si](C)(C)C(C)(C)C)CCC4(C)C3CCC12C (stereo unspecified)
Second: CC1CC2C3CCC4=CC(=O)C=CC4(C)C3=CCC2(C)C1C(=O)CN1CCN(c2cc(NC3CCCC3)nc(NC3CCCC3)n2)CC1 (stereo unspecified)
The melting point of the first is lower: 138 to 139 °C for the first, 180 to 185 °C for the second.

First: CCCc1ccccc1OCCCOc1cccc(OC(=CC(=O)O)C(=O)O)c1CC
Second: O=C1c2ccccc2C(=O)N1CCCOc1cccc2c(O)nccc12
The melting point of the first is lower: 104 to 105 °C for the first, > 300 °C for the second.

Compared with `Cc1nc2c(s1)-c1nc(Nc3ccc(N(C)C)cc3)ncc1CC2`, `COc1ccc(Cn2c(Br)nc3c(-c4ccco4)ncnc32)cc1` is lower in melting point: 176 to 177 °C for the first, 150 to 151 °C for the second.

First: CCc1ccc2c(c1)[C@@H](N1CCCC1=O)[C@H](O)C(C)(C)O2 (relative stereo)
Second: CC1(C)Oc2ccsc2C(N)C1O (stereo unspecified)
The melting point of the first is higher: 154 to 163 °C for the first, 111 to 116 °C for the second.

First: O=c1[nH]c2cc(F)c(F)cc2cc1P(=O)(O)O
Second: CC(=O)Nc1c(C(=O)c2ccccc2)[nH]c2cc([N+](=O)[O-])ccc12
The melting point of the first is higher: 245 to 252 °C for the first, 234 to 236 °C for the second.

Compared with `CC(C)(C)c1cc(C(=O)OCCc2ccc([N+](=O)[O-])cc2)cc(C(C)(C)C)c1O`, `COc1c(C(O)c2ncc([N+](=O)[O-])n2C)cc(O)cc1C(C)(C)C` (stereo unspecified) is higher in melting point: 124 °C for the first, 125 to 128 °C for the second.

First: CCN1CCN(c2nc(-c3ccc(O)cc3)cc3ccccc23)CC1
Second: CN(C)C(=O)COc1cc(Cl)ccc1C(=O)NCCN1CCN(CCc2ccccc2)CC1
The melting point of the first is higher: 204 to 206 °C for the first, 159 to 160 °C for the second.

Compared with `CCCCCCCCCCc1cc(CO)on1`, `CCCCCCCCCCCCCCOc1cc(OCCCOc2ccc(OCc3ccccc3)cc2)cc(C(=O)O)c1` is higher in melting point: 55 to 56 °C for the first, 77 to 79 °C for the second.

`c1cncc(C2CCCCS2)c1` (racemic) and `Clc1nsnc1-c1cccnc1` cannot be ordered by melting point: 49 °C for the first, 48 to 49 °C for the second.

Compared with `CC(=O)NCCOC1=C2C=C(S(N)(=O)=O)SC2S(=O)(=O)CC1` (stereo unspecified), `NS(=O)(=O)c1ccc2c(c1)S(=O)(=O)NC(C1CCCCC1)N2` (stereo unspecified) is higher in melting point: 177 to 181 °C for the first, 252 to 254 °C for the second.

Compared with `COc1c(C)cc(C(=O)c2ccc(Cl)cc2)c(OC)c1OC`, `COC(=O)c1ccc(Cl)cc1NC(=O)CSc1ccc(C)c(C)c1` is lower in melting point: 99.5 to 100 °C for the first, 90 to 91 °C for the second.

Going from `O=C(O)C1CCN(C(=O)c2ccccc2SSc2ccccc2C(=O)N2CCC(C(=O)O)CC2)CC1` to `O=C(N1CCOCC1)C(Cl)(c1ccccc1)c1ccccc1`, the melting point falls from > 250 °C to 113 °C.

Compared with `CC(C)(O/N=C(\C(=O)N[C@@H]1C(=O)N[C@@H]1COC(=O)NC(=O)CCl)c1csc(NC(=O)CCl)n1)C(=O)OCc1ccc([N+](=O)[O-])cc1` (relative stereo), `C=Cc1ccc(COc2ccc(COC(=O)C(=O)OCC)cc2)cc1` is lower in melting point: 206 to 209 °C for the first, 93 °C for the second.

Compared with `CC(=O)NC[C@H]1CN(c2ccc(N3CCC4(CC3)NCCS4)c(F)c2)C(=O)O1`, `Cc1cc(Cl)ccc1N1CCC(=O)N(C)C1=O` is lower in melting point: 150 to 152 °C for the first, 120 to 127 °C for the second.

First: CS(=O)(=O)N1CCC(NC(=O)NC23CC4CC(CC(C4)C2)C3)CC1
Second: O=C1N=C(N2CCOCC2)SC1=Cc1cccc(-c2cc(F)c(O)c(C34CC5CC(CC(C5)C3)C4)c2)c1
The melting point of the first is lower: 228 to 229 °C for the first, 293 to 295 °C for the second.

First: CCOC(=O)N(CCNc1ccc2ncc(-c3ccc(C(N)=O)cc3)n2n1)c1ccccc1
Second: COC(=O)c1ccc(OCCCN(C(N)=O)c2ccc(Cl)cc2)cc1
The melting point of the first is higher: 227 to 228 °C for the first, 141 to 142 °C for the second.

First: C=CCONC(=O)c1c(Cl)nn(C)c1Cl
Second: Cn1cc(C(=O)Nc2ccccc2-c2cc(Cl)cc(Cl)c2)c(C(F)(F)F)n1
The melting point of the first is lower: 96 to 97 °C for the first, 101 to 105 °C for the second.

Compared with `COc1cc(Nc2c(C#N)cnc3cc(-c4ccccc4)sc23)c(Cl)cc1Cl`, `COc1cc(C)c(C(=O)c2c(C(F)(F)F)ccnc2Cl)cc1OCc1ccccc1` is lower in melting point: 274 to 276 °C for the first, 116 to 117 °C for the second.

Compared with `CC1CC(C(=O)O)CCN1C(=O)OC(C)(C)C` (stereo unspecified), `O=C1CCC(C(=O)O)C1` (stereo unspecified) is lower in melting point: 109 to 112 °C for the first, 59 to 60.5 °C for the second.

First: CC(=O)Oc1c(C)cc(C=CC(=O)Nc2cnc3c(C)cc(C)cc3c2-c2ccccc2Cl)cc1C
Second: CSc1cc(CCC(=O)OC(C)(C)C)nc(-c2nc(=O)c3ccccc3s2)c1
The melting point of the first is higher: 207 to 208 °C for the first, 155 to 156 °C for the second.

First: CCc1ccc(S(=O)(=O)Nc2ccccc2/C=C/c2ccncc2)cc1
Second: CC(C#N)(COc1ccc(Cl)cc1)S(=O)(=O)Cc1ccc(Cl)cc1 (stereo unspecified)
The melting point of the first is higher: 232 to 234 °C for the first, 119 to 120 °C for the second.

First: CN1C(=O)C(N)=C(C(N)=S)C1=O
Second: CC(C)c1nsc2c1C(=O)N(C(C)(C)C)C2=O
The melting point of the first is higher: 282 °C for the first, 52 to 53 °C for the second.

First: COc1cc2c(c(Cl)c1Cl)SC(C(C)C)C2O (stereo unspecified)
Second: COc1ccc(CNc2ccc(F)c(Cl)c2)cc1OC
The melting point of the first is lower: 119 to 123 °C for the first, 127 to 128 °C for the second.

Compared with `Clc1ccc2[nH]c3c(c2c1)CN(CCc1ccccn1)CC3`, `Clc1ccc2c(c1)C(c1ccccc1)=NCC1CNCCN21` (stereo unspecified) is lower in melting point: 198 to 200 °C for the first, 132 to 135 °C for the second.

First: CCCCCCCCCCCCCCOc1ccc(N(CC(=O)O)CC(=O)O)cc1OCCCCCCCCCCCCCC
Second: CCCCCS(=O)(=O)NC(=O)/C=C/c1ccc(OCCCS(C)(=O)=O)cc1Oc1ncc(C(F)(F)F)cc1Cl
The melting point of the first is lower: 89 to 93 °C for the first, 194 to 196 °C for the second.

Compared with `O=[N+]([O-])c1ccc2[nH]cc(C3=CCN(Cc4ccccc4)CC3)c2c1`, `Cn1cc(-c2ccccc2)c(=O)c(-c2cccc([N+](=O)[O-])c2)c1` is lower in melting point: 168 to 170 °C for the first, 135 to 136 °C for the second.

Compared with `O=C1CSCCN1c1ccc(C(F)(F)F)cc1`, `COc1ccc2cc(COC(C)(C(=O)O)C(F)(F)F)ccc2c1` (stereo unspecified) is higher in melting point: 79 to 80 °C for the first, 117 to 119 °C for the second.

First: Cn1c(=O)c(Oc2ccccc2F)cc2cnc(N)nc21
Second: CCOC(=O)CC1c2cc(OC)ccc2N(c2nc(Cl)nc3ccccc23)C1C (stereo unspecified)
The melting point of the first is higher: 241 to 243 °C for the first, 111 to 112 °C for the second.

First: O=C(CCCCCCC(=O)Oc1cc(O)cc(O)c1)Oc1cc(O)cc(O)c1
Second: CCOC(=O)c1cc2sc(C)c(N(C)C(=O)OCc3ccccc3)c2[nH]1
The melting point of the first is higher: 185 to 188 °C for the first, 122 °C for the second.

Going from `Cn1c2c(c3ccccc31)CCNC2` to `O=C1CCc2c(Br)cccc2C1`, the melting point falls from > 250 °C to 62 °C.

Compared with `CCc1c(CC(=O)O)c(C)nc(C)c1Cc1nc2c(F)c(F)cc(F)c2s1`, `C=Cn1cc(C(=O)O)c(=O)c2c(C)c(F)c(N3CCNCC3)c(F)c21` is higher in melting point: 193 to 195 °C for the first, 222 to 225 °C for the second.

First: CCOC(=O)C(C)(Sc1cc2ccccc2[nH]1)c1ccccc1 (stereo unspecified)
Second: Nc1ccc([N+](=O)[O-])cc1C(=O)c1ccccc1Cl
The melting point of the first is lower: 97 to 99 °C for the first, 138 to 139 °C for the second.

First: Cc1ccncc1OC1SCC(O)C(O)C1O (stereo unspecified)
Second: CCOC(=Cc1ccncc1)C(C)=O
The melting point of the first is higher: 236 °C for the first, 84 to 88 °C for the second.

Compared with `Cc1cc(-c2cc(C(F)(F)F)n3ncc(C(=O)Nc4cccc(S(=O)(=O)N5CCOCC5)c4)c3n2)ccc1C(F)(F)F`, `O=C(O)CCCc1cc2nc(Cl)ccc2n1S(=O)(=O)c1ccc(OC(F)(F)F)cc1` is lower in melting point: 272 °C for the first, 168 °C for the second.

First: O=C(O)[C@H](CS)N(Sc1nc2cc(Cl)ccc2s1)C(=O)Cc1ccccc1
Second: CC(C)C[C@H](NC(=O)CCc1ccccc1)C(=O)O
The melting point of the first is higher: 155 to 158 °C for the first, 129 to 130 °C for the second.

First: CCCCc1sc(-c2ccccc2)nc1O
Second: CCCCCc1csc2cc(OC)ccc12
The melting point of the first is higher: 69 to 71 °C for the first, 43 to 45 °C for the second.

Compared with `CCS(=O)(=O)Oc1ccccc1S(N)(=O)=O`, `CCC1=Nc2ccc(S(C)(=O)=O)cc2C(=O)C1` is higher in melting point: 90 to 92.5 °C for the first, 283 °C for the second.

First: CC1=NN=C(C=Cc2ccc(C#N)cc2)c2cc3c(cc2C1)OCO3
Second: Cc1cc(Cl)nnc1-c1cccc(C#N)c1
The melting point of the first is higher: 198 to 202 °C for the first, 153 to 155 °C for the second.

First: CC(C)(C)c1ccc(C(=O)Nc2cn3cc(-c4cccnc4)ccc3n2)cn1
Second: Clc1cccc(-c2cnn(-c3ccccn3)c2)c1
The melting point of the first is higher: 272 to 274 °C for the first, 110 to 111 °C for the second.

First: CCC(Oc1ccccc1C(C)=O)C(=O)OC1CC(O)C=C2C=CC(C)C(CCC3CC(O)CC(=O)O3)C21 (mixture of isomers)
Second: CCOC(=O)C1=C(C)NC(CCN(C)C)=C(C(=O)OCC)C1c1ccccc1/C=C(\C)C(=O)OCC (stereo unspecified)
The melting point of the first is higher: 148 to 150 °C for the first, 109 °C for the second.

First: Cc1ccc(S(=O)(=O)ON=C(CCN2C(=O)c3ccccc3C2=O)n2nc(C)c(Cl)c2N)cc1
Second: Cc1oc(-c2ccccc2)nc1COc1ccc(COc2nn(Cc3ccccc3)cc2CC(=O)O)cc1
The melting point of the first is higher: 168 to 171 °C for the first, 91 to 92 °C for the second.

Compared with `O=C(NCCO)c1csc(C(F)(F)F)n1`, `O=C(NCCO[N+](=O)[O-])c1ccc(Br)o1` is lower in melting point: 100 to 101 °C for the first, 61 to 63 °C for the second.

First: CC(C)(C)OC(=O)NCC(=O)c1cccnc1
Second: COC(=O)c1ccccc1Nc1cccc(C(C)NO)c1C (stereo unspecified)
The melting point of the first is lower: 98 to 99 °C for the first, 114 to 116 °C for the second.

`Cc1cc(C)c(C(=O)O)c(C)c1C` and `CNC(=O)C1=CC(C)(C)Oc2ccc([N+](=O)[O-])cc21` cannot be ordered by melting point: 164 to 167 °C for the first, 166 to 168 °C for the second.

First: CC(=O)Cc1ccc(-c2ccc(Cl)cc2)cc1
Second: CC(C(=O)O)C1CCCc2c1n(Cc1ccc(Cl)cc1)c1ccc(F)cc21 (stereo unspecified)
The melting point of the first is lower: 79 to 81 °C for the first, 203 to 205 °C for the second.

Compared with `CCC(=O)OC1(C)CCCC2C3C=CC(C3)C21` (stereo unspecified), `CC(=O)c1ccc(C2CC(C)(C)CC(C)(C)C2)cc1` is higher in melting point: 30 °C for the first, 54 °C for the second.

First: Cc1c[nH]c2cc(-c3nn(C(C)c4oc5ccccc5c(=O)c4-c4cccc(F)c4)c4ncnc(N)c34)ccc12 (stereo unspecified)
Second: Cn1ncnc1COc1nc2c(cnn2-c2ccccc2)c2ccccc12
The melting point of the first is higher: 262 to 265 °C for the first, 149 to 151 °C for the second.

With `CCn1c(Cl)c(C=O)c(=O)n(CC)c1=NO` the melting point was 115 to 116 °C.

— a melting point compilation (Tetko et al.; mined from patent text by program, amines drawn as free bases though some values may be those of a salt)
